# Assay results published in patent US20240344059A1, “Gene Editing of Regulatory Elements” (Vertex Pharmaceuticals Incorporated, priority 2021, published 2024).
# Assays:
# [1] = tested on: CUG foci in myonuclei of DM1 patient myotubes; test: FISH staining of CUG RNA foci (SaCas9/SluCas9 sgRNA pairs); format: cell-based, human; parameters: average Foci reduction: concentration or dose not given beside the values; conditions: for average Foci reduction: myonuclei of DM1 patient myotubes
# Experimental: Primary myotubes were fixed for 15 min with 4% paraformaldehyde (PFA) and washed five times with 1×PBS for 5 min each at room temperature. Before staining, cells were permeabilized with 0.5% triton X-100 in 1×PBS for 5 min at room temperature, and then washed with 30% formamide and 2× saline-sodium citrate (SSC) mixture for 10 min at room temperature. Cells were then stained with 1 ng/μL of Cy3-PNA(CAG)5 probe (PNA Bio, F5001) diluted in 30% formamide, 2×SSC, 2 μg/mL BSA, 66 μg/mL yeast tRNA, and 2 mM vanadyl complex for 15 min at 80° C. Following probe staining, cells were then washed in 30% formamide and 2×SSC mixture for 30 min at 60° C., then washed in 30% formamide and 2×SSC mixture for 30 min at 55° C., and then washed in 1×SSC solution for 10 min at room temperature, and finally washed in 1×PBS for 10 min at room temperature. For staining of myotube nuclei, cells were stained with anti-Myogenin antibody diluted in 1% bovine serum albumin (BSA) for overnight at 4° C. and washed twice with 1×PBS for 5 min each at room temperature. Cells were then incubated with the secondary antibody goat anti-rabbit Alexa 488 (Thermo Fisher, A32731) diluted in 1% BSA for 1 hr at room temperature and washed twice with 1×PBS for 5 min each at room temperature. Next, cells were stained with Hoechst solution (Thermo Fisher, H3569) at 0.1 mg/ml for 5 min and washed once with 1×PBS for 5 min. PBS was aspirated and fresh 100 μl of fresh PBS was added to each well. High-throughput acquisition of images was completed with the ImageXpress Micro Confocal High-Content Imaging System (Molecular Devices). RNA foci quantifications were accomplished with a customized analysis module of the MetaXpress program (Molecular Devices).
# Each sgRNA pair consisting of one upstream sgRNA and one downstream sgRNA were assembled with recombinant SaCas9 or SluCas9 protein, respectively, into a ribonucleoprotein (RNP) complex and delivered into primary DM1 patient myoblasts with Amaxa 4D-Nucleofector. Post nucleofection, myoblasts were divided into 6 groups and were treated with DMSO (Groups 1-3) or 3 μM of DNA-dependent Protein Kinase Inhibitor (DNA-PKi) Compound 6 (Group 4-6) for 48 hrs. DNA-PKi was used to boost the excision efficiency and to better understand the contribution of E-boxes to DMPK transcription. 72 hrs post nucleofection, myoblasts from Groups 1 and 4 were collected for genomic DNA isolation, whereas the rest of the groups were subjected to myogenic differentiation to form myotubes. The myotubes were collected on Day 15 post nucleofection (Day 12 post differentiation) for mRNA isolation (Group 2 and 5) and RNA foci staining (Groups 3 and 6) (FIG. 9).
# [2] = tested on: CUG RNA foci in primary DM1 patient myoblasts / myotubes; test: FISH staining of CUG RNA foci (SpCas9 sgRNA pairs); format: cell-based, human; conditions: DM1 patient myotubes nucleofected with SpCas9 sgRNA pairs, Group 5 vs Group 6
# Experimental: Primary myoblasts were fixed for 15 min with 4% paraformaldehyde (PFA) and washed five times with 1×PBS for 10 min each at room temperature. Before staining, cells were permeabilized with 0.5% triton X-100 in 1×PBS for 5 min at room temperature, and then washed with 30% formamide and 2× saline-sodium citrate (SSC) mixture for 10 min at room temperature. Cells were then stained with 1 ng/μL of Cy3-PNA(CAG)5 probe (PNA Bio, F5001) diluted in 30% formamide, 2×SSC, 2 μg/mL BSA, 66 μg/mL yeast tRNA, and 2 mM vanadyl complex for 15 min at 80° C. Following probe staining, cells were then washed in 30% formamide and 2×SSC mixture for 30 min at 42° C., then washed in 30% formamide and 2×SSC mixture for 30 min at 37° C., and then washed in 1×SSC solution for 10 min at room temperature, and finally washed in 1×PBS for 10 min at room temperature. For staining of myotube nuclei, cells were stained with anti-Myogenin antibody diluted in 1% bovine serum albumin (BSA) for overnight at 4° C. and washed twice with 1×PBS for 10 min each at room temperature. Cells were then incubated with the secondary antibody goat anti-rabbit Alexa 647 (Thermo Fisher, A32728) diluted in 1% BSA for 1 hr at room temperature and washed twice with 1×PBS for 10 min each at room temperature. […] RNA foci quantifications were accomplished with a customized analysis module of the MetaXpress program (Molecular Devices). […]
# [3] = tested on: DMPK mRNA; test: DMPK mRNA expression by ddPCR (SaCas9/SluCas9 sgRNA pairs); format: cell-based, human; conditions: DM1 myotubes, 3 μM DNA-PKi Compound 6 for 48 h
# Description: mRNA of DM1 myotubes was isolated with the Kingfisher Flex purification system (Thermal Fisher) in 96-well format following the manufacturer's instruction. cDNA was synthesized with SuperScript™ IV VILO™ Master Mix with ezDNase™ Enzyme (Thermal Fisher) following mRNA isolation.
# The primers and probes of ddPCR for hDMPK and GAPDH were pre-designed by Fisher Scientifics qPCR assays (Hs00266705_g1 and Hs01094329_m1). For DMPK expression, one target primer/probe set was used to detect DMPK expression levels, and one reference primer/probe set was used to detect GAPDH expression levels. The 24 μL of ddPCR reaction consisted of 12 μL of Supermix for Probes (no dUTP) (Bio-Rad Laboratories), 1 μL of Reference primers mix (21.6 μM), 1 μL of Reference probe (6 μM), 1 μL of Target primers mix (21.6 μM), 1 μL of Target probe (6 μM), 2 μL of H2O and 6 μL of sample genomic DNA. Droplets were generated using probe oil with the QX200 Droplet Generator (Bio-Rad Laboratories). […] The cycled plate was then transferred and read in the FAM and HEX channels using the Bio-Rad QX200 Droplet Reader (Bio-Rad Laboratories). ddPCR analysis was performed with the Bio-Rad QuantaSoft Pro Software. […]
# [4] = tested on: E-boxes within intron 1 of human DMPK gene; test: PCR, TapeStation and ICE verification of E-box excision (SaCas9/SluCas9 RNP); format: cell-based; conditions: DM1 patient myoblasts, 3 μM DNA-PKi Compound 6 for 48 h, TapeStation and ICE analysis
# Description: Primary healthy myoblasts (P01431-18F) and DM1 patient myoblasts (03001-32F) were obtained from Cook MyoSite. Myoblasts were maintained in myoblast growth medium consisted of Myotonic™ Basal Medium (Cook Myosite, MB-2222) and Myotonic™ Growth Supplement (Cook Myosite, MS-3333) and purified with EasySep Human CD56 Positive Selection Kit II (StemCell Tech, 17855) following the manufacturer's instruction. Purified myoblasts were then banked in liquid nitrogen tank until 3-4 days before nucleofection.
# The RNPs were assembled with either recombinant SaCas9 protein (Aldevron) or SluCas9 (Aldevron) and chemically modified sgRNAs (Synthego) at a ratio of 1:3 (protein:sgRNA). Specifically, SaCas9 RNPs complexes were first assembled for individual sgRNAs with 20 pmol of SaCas9 protein and 60 pmol of sgRNAs in 5 μL of P5 Nucleofector Solution. SluCas9 RNPs complexes were first assembled for individual sgRNAs with 15 pmol of SluCas9 and 45 pmol of sgRNAs in 5 μL of P5 Nucleofector Solution. […]
# Genomic DNA of DM1 myoblasts was isolated with the Kingfisher Flex purification system (Thermal Fisher) in 96-well format following the manufacturer's instruction. […] The PCR products were analyzed by gel electrophoresis. […]
Molecule,average Foci reduction [1] [%],other results
"saU5D1: SaCas9 sgRNA pair SaU5 + SaD1, SEQ ID NOs 1304/1305, delivered as RNP (guide 1 CCATAGAGCCCACTTTTGGGGG; guide 2 CTGGTTCTCCCACAGGGCCCGC; delivered as SaCas9 RNP, further chemistry not given here)",~50,–
"sluU64D34: control CTG repeat excision SluCas9 sgRNA pair, SEQ ID NOs 1497 and 1498 (guide 1 GGGGCTCGAAGGGTCCTTGTAG; guide 2 CGCGCCAGACGCTCCCCAGAGC; listed as DNA, chemistry not given here) [reference compound]",~50,–
Cc1ccnc(N[C@H]2CC[C@@H](Oc3cc(N4CCOCC4)cc4nonc34)CC2)n1 [Compound 6],–,"foci-free myonuclei, DNA-PKi-treated versus vehicle-treated [2]: substantially higher; hDMPK mRNA reduction, DNA-Pki treatment group versus DMSO group [3]: more dramatic hDMPK mRNA reduction; expected excision, DNA-PKi group compared to the vehicle group [4]: more apparent expected excision; further average foci number reduction in myonuclei by DNA-PKi ([1]; DM1 patient myotubes, DNA-PKi group versus DMSO group): no further average foci number reduction"
"sluU3D3: SluCas9 sgRNA pair SluU3 + SluD3, delivered as RNP (guide 1 TCTCTGCACCCCGCCTCAGGGT; guide 2 CTGCGATCCAGGAGGGACAACT; delivered as SaCas9 RNP, further chemistry not given here)",~50,–
"SaU3D1: SaCas9 sgRNA pair SaU3 + SaD1, SEQ ID NOs 1302/1305, delivered as RNP (guide 1 TCTCTGCACCCCGCCTCAGGGT; guide 2 CTGGTTCTCCCACAGGGCCCGC; delivered as SaCas9 RNP, further chemistry not given here)",~50,–
"sluU3D2: SluCas9 sgRNA pair SluU3 + SluD2, delivered as RNP (guide 1 TCTCTGCACCCCGCCTCAGGGT; guide 2 GAAGAACCCAAAGTTGTCCCTC; delivered as SaCas9 RNP, further chemistry not given here)",~50,–
"SaU1DI: SaCas9 sgRNA pair SaU1 + SaD1, SEQ ID NOs 1300/1305, delivered as RNP (guide 1 ATGGCCTCTCTGCACCCCGCCT; guide 2 CTGGTTCTCCCACAGGGCCCGC; delivered as SaCas9 RNP, further chemistry not given here)",~50,–
"SaU3D3: SaCas9 sgRNA pair SaU3 + SaD3, SEQ ID NOs 1302/1307, delivered as RNP (guide 1 TCTCTGCACCCCGCCTCAGGGT; guide 2 CTGCGATCCAGGAGGGACAACT; delivered as SaCas9 RNP, further chemistry not given here)",~50,–
